# How the values were obtained:
# Assay type in all cases: biochemical
# [1] = molecular target: T1, human recombinant FTase (Homo sapiens, UniProt P49354+P49356); experiment: FTase inactivation, fluorescence assay of farnesylation of Ds-GCVLS after preincubation with inactivator; conditions: for inactivation of FTase (result in words): preincubation of FTase with compound, fluorescence assay
# T1 construct: gift from Professor Patrick Casey, Duke University
# Description: For example, the catalytic ability of FTase was monitored by an assay procedure in which FTase transferred the farnesyl group from FPP to a peptide substitute for Ras. The peptide substitute for Ras in this assay had structural elements in common with Ras, in particular a sequence of four amino acids cysteinyl-valyl-lysyl-serine (cys-val-lys-ser).
# Inactivation of the enzyme FTase occurred when the FTase was preincubated with phenylglyoxal monohydrate, as evidenced by (1) a decrease in enzyme activity with increasing time of preincubation with phenylglyoxal monohydrate; and (2) a decrease in enzyme activity with increasing concentration of phenylglyoxal monohydrate. Because of interference of phenylglyoxal monohydrate with the fluorescence assay used, phenylglyoxal monohydrate was removed from the FTase preincubation mixture by ultrafiltration prior to the assay being performed.
# FTase assay The fluoresence assay conditions were adapted from a published method. The FTase assay consisted of the measurement of the rate of FTase-catalyzed farnesylation of the fluorescent pentapeptide Ds-GCVLS. Upon farnesylation of the cysteine, the fluoresence emission at =505 nm of the dansyl group is enhanced due to the proximity of the hydrophobic isoprenoid group. Enzyme activity (approximately 60 nM FTase) was monitored at saturating substrate concentrations (10 M farnesyl pyrophosphate, ammonium salt, prepared by successive dilutions of a commercial 2.3 mM solution in methanol:10 mM aqueous NH4OH (7:3) into assay buffer, and 1.0 M Ds-GCVLS) by measurement of the increase in fluorescence emission observed at =505 nm as FTase farnesylated Ds-GCVLS for a period of 10 min. The assay buffer was selected for unreactivity toward PGO: 50 mM NaHEPES, 5 mM DTT, 5 mM MgCl2, 10 μM ZnCl2, and 0.2% n-octyl-β-D-glucopyranoside, pH 7.5. Fluorescence emission was measured with a JASCO FP-77 spectrofluorimeter fitted with a temperature-controlled cuvette holder connected to a 30 C. constant temperature bath. All fluoresence assays were conducted in a 4 mm 4 mm quartz cuvette with excitation at 340 nm.
# Inactivation of FTase by PGO FTase was incubated at 30 C in the presence and absence of PGO at various concentrations in 50 mM NaHEPES, 5 mM MgCl2, 10 μM ZnCl2, and 0.2% n-octyl-β-D-glucopyranoside, pH 7.5 (i.e., assay buffer without DTT). Periodically, aliquots of the FTase-PGO reaction mixture were removed and assayed for FTase activity. Because of interference of PGO with the fluorometric assay, the aliquot was first subjected to solvent exchange by size exclusion membrane concentration to remove PGO. The solvent exchange utilized Microcon (Millipore Co.) 30 kD molecular weight cutoff microconcentrators. This also served to stop further inactivation of the enzyme by PGO. A 100-L aliquot of FTase-PGO reaction mixture was pipetted into a Microcon concentrator, which was centrifuged at 12,000 RPM for 8 min at 4 C. The concentrate was resuspended in […] of assay buffer, and centrifugation was repeated. The final concentrate was resuspended in 90 L of assay buffer, and the resulting solution was recovered by inversion of the concentrator and centrifugation at 3500 RPM for 3 min at 4 C. The solution was then assayed for FTase activity as described above. A control was handled as above, except that PGO was omitted from the incubation mixture.
# [2] = molecular target: T1, human recombinant FTase; experiment: as above
# [3] = molecular target: T1, human recombinant FTase; experiment: FPP protection of FTase against inactivation by PGO; conditions: FPP at various concentrations 2 min, then 10 mM PGO for 30 min at 30° C.; FIG. 3
# Description: FIG. 3. Farnesyl pyrophosphate protection of FTase from inactivation by PGO. Points are determined by 100×(FTase activity after incubation with FPP and PGO)/(FTase activity after incubation with FPP without PGO). Assays were carried out after removal of FPP and PGO with a high molecular weight cutoff microconcentrator. Each point is the average of duplicate determinations.
# FPP protection of FTase against inactivation by PGO FTase was treated with FPP at various concentrations in assay buffer without DTT for 2 min at 30° C. prior to incubation of the mixture with 10 mM PGO for 30 min at 30° C. The control was incubated with FPP at the corresponding concentration for the full length of time, but without PGO. The mixtures were subsequently subjected to microconcentration and assay, as described above.
compound,measurement,setting,value
"CCC(=O)C(C)=O [2,3-pentanedione]",inactivation of FTase (result in words),[1],rapidly inactivated FTase
same,"FTase activity, % of the initial control value","[2]; 17 mM, approximately 30 minutes of incubation, 50 mM sodium borate, pH 7.5, FTase 15 nM, Microcon step omitted",69%
same,"FTase activity, % of the initial control value","[2]; 33 mM, approximately 30 minutes of incubation, 50 mM sodium borate, pH 7.5, FTase 15 nM, Microcon step omitted",55%
same,"FTase activity, % of the initial control value","[2]; 66 mM, approximately 30 minutes of incubation, 50 mM sodium borate, pH 7.5, FTase 15 nM, Microcon step omitted",37%
"O=CC(=O)c1ccccc1 [PGO, phenylglyoxal monohydrate]",FTase activity following preincubation with inactivator,"[1]; 10 mM PGO for 10 min, PGO removed by microconcentrator, FIG. 1",virtual absence of enzyme activity
same,rate of inactivation of FTase,"[1]; 10 mM PGO, compared with 20 mM, FIG. 2",slower but still quite rapid
same,inactivation of FTase (result in words),"[1]; listed as phenylglyoxal monohydrate, monohydrate",rapid and virtually complete inactivation
same,inactivation of FTase (result in words),[1]; monohydrate,rapidly inactivated
same,effect of preincubation of FTase with FPP on inactivation by PGO,[3],decreased the ability of PGO to inactivate FTase
same,rate of inactivation of FTase,"[2]; 5 mM PGO, FIG. 2",the rate of inactivation was reduced
CCCCCCCCCCC(=O)C=O [2-oxododecanal],time of incubation until FTase activity was lost,"[1]; 35 mM 2-oxododecanal, 5% DMSO, data not shown",≤ 2 min
same,inactivation of FTase (result in words),[1],rapidly inactivated FTase
"CC(=O)c1ccc(-c2ccc(C(C)=O)cc2)cc1 [4,4′-diacetylbiphenyl, reference compound]",inactivation of FTase (result in words),[1],did not inactivated FTase
same,FTase activity compared with the control,"[2]; 23 μM, 120 minutes of incubation, FTase 15 nM, 4.6% DMSO",the same as the control
"O=CC(=O)c1ccc(-c2ccc(C(=O)C=O)cc2)cc1 [4,4′-biphenyldiglyoxaldehyde]",inactivation of FTase (result in words),[1],rapidly inactivated FTase
same,"FTase activity, % of the initial control value","[2]; 23 μM, 30 minutes of incubation, FTase 15 nM, 4.6% DMSO",68%
same,"FTase activity, % of the initial control value","[2]; 93 μM, 30 minutes of incubation, FTase 15 nM, 4.6% DMSO",11%
"CC(=O)C(=O)CC(C)CCC=C(C)C (stereo not shown) [5,9-dimethyl-8-decene-2,3-dione]",inactivation of FTase (result in words),[1],rapidly inactivated FTase
same,"FTase activity, % of the initial control value","[2]; 17 μM, 30 minutes of incubation, FTase 15 nM, 4.6% DMSO, Microcon step omitted",38%
same,"FTase activity, % of the initial control value","[2]; 68 μM, 30 minutes of incubation, FTase 15 nM, 4.6% DMSO, Microcon step omitted",18%
same,"FTase activity, % of the initial control value","[2]; 171 μM, 30 minutes of incubation, FTase 15 nM, 4.6% DMSO, Microcon step omitted",16%
CCCCCCCCCCCCCCCC(=O)OC[C@H](O)[C@H]1OC(=O)C(=O)C1=O [dehydroascorbic acid 6-palmitate],inactivation of FTase (result in words),[1],rapidly inactivated FTase
same,"FTase activity, % of the initial control value","[2]; 7 μM, 30 minutes of incubation, FTase 15 nM, 0.46% DMSO, Microcon step omitted",75%
same,"FTase activity, % of the initial control value","[2]; 28 μM, 30 minutes of incubation, FTase 15 nM, 0.46% DMSO, Microcon step omitted",34%
same,"FTase activity, % of the initial control value","[2]; 141 μM, 30 minutes of incubation, FTase 15 nM, 0.46% DMSO, Microcon step omitted",22%

# From patent US7344851B2, “Anticancer agents based on prevention of protein prenylation” (Arizona Biomedical Research Commission, priority 1998, dated 2008)
